Our source for the CC50 and EC50 values is US20140205566A1, “CYCLIC NUCLEUOSIDE DERIVATIVES AND USES THEREOF” (NOVARTIS AG, priority 2012, published 2014).

Common to all, as to format: cell-based
Series [1] is described as follows: CCK8 cytotoxicity assay in THP-1 cells. The conditions noted are these: human, CCK-8. Here is the method: 4 day cytotoxicity assay using THP-1 cells: THP-1 cells grown in suspension were counted and diluted to 8×10^4 cells/ml in RPMI-1640 media supplemented with 10% fetal bovine serum (FBS) and 1% penicillin/streptomycin. 25 ul of the THP-1 containing media consisting of 2000 cells were dispensed in 384-well tissue culture plate and pre-incubated at room temperature for 30 minutes, followed by 37° C., 5% CO2 overnight in the humidified incubator. On the next day, serial-diluted compound plates were prepared and 125 nl of compounds at various concentrations were then dispensed into the tissue culture well (200× dilution). The plates were then transferred to 37° C., 5% CO2 humidified incubator for additional 96 hours. Cytotoxicity was measured by CCK-8 assay. Briefly, CCK-8 was thawed on bench top and diluted 2.5× with the growth media. 35 ul of the pre-diluted CCK-8 was then introduced into each well and the plates were then further incubated in 37° C., 5% CO2 humidified incubator for 3 hours. The absorbance was read by Envision at 450 nm. Dose response curves were calculated as in the previous section (n=2). The CC50 is estimated as the concentration of the compound which will inhibit 50% of the signal. A positive control (puromycin) was used to ensure the quality of the data.

Series [2] is described as follows: CCK8 cytotoxicity assay in HepG2 cells. The settings on record: human, CCK-8. The procedure:
HepG2 cells were trypsinized, washed, counted and diluted to 1.6×10^4 cells/ml in DMEM-W/O Glucose, supplemented with 10% Fetal bovine serum (FBS), 1% Penicillin/Streptomycin, 2 mM HEPES, 1 mM Sodium Pyruvate, 10 mM Galactose & 2 mM Glutamine. 25 μl of the media containing 400 cells per well were dispensed in clear 384-well tissue culture plate and incubated at room temperature for 30 minutes. The plate was then transferred and placed at 37° C., 5% CO2 humidified incubator overnight. On the next day, serial-diluted compound plates were prepared and 125 nl of compounds at various concentrations were then dispensed into the tissue culture well (200× dilution). The plates were then transferred to 37° C., 5% CO2 humidified incubator for additional 96 hours. Cytotoxicity was measured by CCK-8 assay. Briefly, CCK-8 was thawed on bench top and diluted 2.5× with the growth media. 35 ul of the pre-diluted CCK-8 was then introduced into each well and the plates were then further incubated in 37° C., 5% CO2 humidified incubator for 3 hours. The absorbance was read by Envision at 450 nm. Dose response curves were calculated as in the previous section. The CC50 is estimated as the concentration of the compound which will inhibit 50% of the signal. A positive control (puromycin) was used to ensure the quality of the data.
On the technique in general: Tetrazolium dyes change colour on reduction, which living cells bring about.

A further series concerns dengue virus. The series can be described thus: Dengue EC50 determination: PBMC infected with virus/humanized 4G2 antibody complex, plaque reduction assay using BHK cells. The conditions noted are these: M.O.I of 1, 48 hours, plaque reduction in BHK cells. Here is the method:
Cryopreserved PBMC (Peripheral Blood Mononuclear Cell) cells were purchased from AllCells, LLC in USA. The cells were then thawed according to manufacturer's instructions and re-suspended in RPMI medium supplemented with 1% penicillin/streptomycin solution and 10% Fetal Calf serum. The cells were then counted and viability checked (viability should be at least 80%). After centrifuging and removing the media, the cells were diluted to 1×10^7 cells/mL in RPMI medium supplemented with 1% penicillin/streptomycin. 50 μl of the cells were then dispensed into 96-well tissue culture plate resulting in 5×10^5 cells/well. Next, virus with humanized 4G2 mixture was prepared for infection. Briefly, virus (2×10^7 pfu/ml) was mixed with humanized 4G2 antibody with the final antibody concentration of 0.38 μg/ml and incubated for 30 minutes at 4° C. to assist virus/antibody complex formation. The virus-antibody complex was then added to the PBMC at multiplicity of infection (M.O.I) of 1. The mixture of cells, virus and antibody was then further incubated in the plates at 37° C. for an hour in the humidified incubator for virus attachment and infection to take place. Serial diluted compounds were then added to the final media volume of 200 μl with 2% Fetal Calf Serum (final PBMC concentration would be 2.5×10^6 cells/mL). The plates were then incubated at 37° C., 5% CO2 for another 48 hours. The extent of the infection and compound inhibition was measured by plaque reduction assay using BHK cells [RD-2004-80036]. Briefly, supernatants of BHK cells grown in 24-well tissue culture (seeded at 200,000 cells/well the night before) were removed and subjected to 200 μl of diluted supernatants derived from PBMC infection containing serial diluted compounds. After incubating it for 37° C. for 1 hour in the incubator, the supernatants were removed and BHK cells overlaid with RPMI media containing 0.8% methyl-cellulose, 0.5% DMSO, 0.05% sodium bicarbonate, 25 mM HEPES, 2% fetal bovine serum and 1% penicillin/streptomycin solution. After additional 4 days of incubation at 37° C. incubator, the monolayer of BHK cells were fixed with 4% paraformaldehyde, stained with crystal violet and plaques counted. The dose response (n=2) is calculated by Prism from Graphpad software using a mathematical curve fitting analysis called nonlinear regression with four independent parameters. Briefly, the software generates the best fit curve using the formula F(x)=((A−D)/(1+((x/C)̂B)))+D. In this formula, x represents the concentration of the compound, A is the minimum value, B represents the steepness of the curve (sometimes known as Hill slope), C is the inflection point and D is the maximum value. EC50 was estimated as the concentration of the compound which will inhibit 50% of the plaque formation. A positive control (7-deaza-2′-C-acetylene-adenosine) was used to ensure the quality of the data.
On the technique in general: Plaque reduction counts the foci of infection that form in a cell layer.

For the compound `CCCOc1nc(N)nc2c1ncn2[C@@H]1O[C@@H]2CO[P@](=O)(N[C@@H](C)C(=O)OC)O[C@H]2[C@@]1(C)F` [Example 14, (S)-methyl 2-(((2R,4aR,6R,7R,7aR)-6-(2-amino-6-propoxy-9H-purin-9-yl)-7-fluoro-7-methyl-2-oxidotetrahydro-4H-furo[3,2-d][1,3,2]dioxaphosphinin-2-yl)amino)propanoate], the cytotoxic concentration (CC50) at 96 h in series [1] and in series [2] was > 50 µM each time. Moreover, a half-maximal effect in the series on dengue virus (EC50) was put at 0.18 µM.
As for `COC(=O)[C@H](C)N[P@@]1(=O)OC[C@H]2O[C@@H](n3cnc4c(OC(C)C)nc(N)nc43)[C@](C)(F)[C@@H]2O1` [Example 12, (S)-methyl 2-(((2R,4aR,6R,7R,7aR)-6-(2-amino-6-isopropoxy-9H-purin-9-yl)-7-fluoro-7-methyl-2-oxidotetrahydro-4H-furo[3,2-d][1,3,2]dioxaphosphinin-2-yl)amino)propanoate], the CC50 at 96 h in series [1] and in series [2] was > 50 µM in each case. A half-maximal effect in the series with dengue virus (EC50) was put at 0.43 µM.
Consider `CCOC(=O)[C@H](C)N[P@@]1(=O)OC[C@H]2O[C@@H](n3ccc(=O)[nH]c3=O)[C@](C)(F)[C@@H]2O1` [Comparative Example 2, (S)-ethyl 2-(((2R,4aR,6R,7R,7aR)-6-(2,4-dioxo-3,4-dihydropyrimidin-1(2H)-yl)-7-fluoro-7-methyl-2-oxidotetrahydro-4H-furo[3,2-d][1,3,2]dioxaphosphinin-2-yl)amino)propanoate, reference compound], for which the EC50 (as a rule, the midpoint of the concentration-response curve) with dengue virus is > 25 µM.
On the same count and under the same terms, next, `CCOc1nc(N)nc2c1ncn2[C@@H]1O[C@@H]2CO[P@@](=O)(OC(C)C)O[C@H]2[C@@]1(C)F` [Comparative Example 3, (2S,4aR,6R,7R,7aR)-6-(2-amino-6-ethoxy-9H-purin-9-yl)-7-fluoro-2-isopropoxy-7-methyltetrahydro-4H-furo[3,2-d][1,3,2]dioxaphosphinine 2-oxide, reference compound]: > 25 µM.
Still for that read-out and setting: next, `CCOC(=O)[C@H](C)N[P@@]1(=O)OC[C@H]2O[C@@H](n3cnc4c(N)nc(N)nc43)[C@](C)(F)[C@@H]2O1` [Comparative Example 1, (S)-Ethyl 2-(((2R,4aR,6R,7R,7aR)-6-(2,6-diamino-9H-purin-9-yl)-7-fluoro-7-methyl-2-oxidotetrahydro-4H-furo[3,2-d][1,3,2]dioxaphosphinin-2-yl)amino)propanoate, reference compound]: > 25 µM.
